Conditions: [M+2Na-H]+; instrument: DT; stepped-field

collision cross section (N2) | SMILES
288.8 Å² | CCCCC/C=C\C/C=C\CCCCCCCCCCCC(=O)O[C@H](COC(=O)CCCCCCCCCCCCCCC)COP(=O)(O)OCCN [PE(38:02)]
304.19 Å² | CCCCC/C=C\C/C=C\C/C=C\CCCCCCC(=O)OC[C@H](COP(=O)(O)OC[C@H](N)C(=O)O)OC(=O)CCCCCCCCC/C=C\CCCCCCCCCC [PS(42:04)]

Same assay, conditions: [M+H-2H2O]+; instrument: DT; stepped-field

collision cross section (N2) | SMILES
314.25 Å² | CCCCCCCCCCCCC=CC[C@@H](O)[C@H](CO[C@@H]1O[C@H](CO)[C@@H](O)C(O)C1O)NC(=O)CC=CCC=CCC=CCCCCCCCCCCCCCCCCCCCCCC (stereo partly drawn) [GlcCer(50:04)]

Same assay, conditions: [M+H-H2O]+; instrument: DT; stepped-field

collision cross section (N2) | SMILES
275.52 Å² | CCCCCCCCCCCCC=CC[C@@H](O)[C@H](CO)NC(=O)CC=CCCCCCCCCCCCCCCCCCCCCC [Cer(43:02)]

Same assay, conditions: [M+HCOO]-; instrument: DT; stepped-field

collision cross section (N2) | SMILES
304.85 Å² | CCCCCCCCCCCCC=CC[C@@H](O)[C@H](COP(=O)([O-])OCC[N+](C)(C)C)NC(=O)CC=CCC=CCCCCCCCCCCCCCCCCC [SM(42:03)]
303.33 Å² | CCCCCCCCCCCCC=CC[C@@H](O)[C@H](COP(=O)([O-])OCC[N+](C)(C)C)NC(=O)CC=CCCCCCCCCCCCCCCCCCCC [SM(41:02)]

Same assay, conditions: [M+H]+; instrument: DT; stepped-field

collision cross section (N2) | SMILES
299.58 Å² | CCCCCCCCCCCCC=CC[C@@H](O)[C@H](COP(=O)([O-])OCC[N+](C)(C)C)NC(=O)CC=CCC=CCCCCCCCCCCCCCCCCC [SM(42:03)]
298.91 Å² | CCCCCCCCCCCCC=CC[C@@H](O)[C@H](COP(=O)([O-])OCC[N+](C)(C)C)NC(=O)CC=CCCCCCCCCCCCCCCCCCCC [SM(41:02)]
296.39 Å² | CCCCC/C=C\C/C=C\C/C=C\CCCCCCC(=O)OC[C@H](COP(=O)(O)OC[C@H](N)C(=O)O)OC(=O)CCCCCCCCC/C=C\CCCCCCCCCC [PS(42:04)]
287.87 Å² | CCCCCCCCCCCCC=CC[C@@H](O)[C@H](CO[C@@H]1O[C@H](CO)[C@@H](O)C(O)C1O)NC(=O)CC=CCCCCCCCCCCCCCCCC (stereo partly drawn) [GlcCer(38:02)]

Same assay, conditions: [M+Na]+; instrument: DT; stepped-field

collision cross section (N2) | SMILES
297.59 Å² | CCCCCCCCCCCCC=CC[C@@H](O)[C@H](COP(=O)([O-])OCC[N+](C)(C)C)NC(=O)CC=CCC=CCCCCCCCCCCCCCCCCC [SM(42:03)]
296.38 Å² | CCCCCCCCCCCCC=CC[C@@H](O)[C@H](COP(=O)([O-])OCC[N+](C)(C)C)NC(=O)CC=CCCCCCCCCCCCCCCCCCCC [SM(41:02)]
298.86 Å² | CCCCC/C=C\C/C=C\C/C=C\CCCCCCC(=O)OC[C@H](COP(=O)(O)OC[C@H](N)C(=O)O)OC(=O)CCCCCCCCC/C=C\CCCCCCCCCC [PS(42:04)]
287.34 Å² | CCCCCCCCCCCCC=CC[C@@H](O)[C@H](CO[C@@H]1O[C@H](CO)[C@@H](O)C(O)C1O)NC(=O)CC=CCCCCCCCCCCCCCCCC (stereo partly drawn) [GlcCer(38:02)]

Conditions: [M+H]+; instrument: DT; single field, calibrated with Agilent tune mix (Agilent)

collision cross section (N2) | SMILES
294.9 Å² | CCCCCCCCCC/C=C\CCCCCCCCCC(=O)O[C@H](COC(=O)CCCCCCCCCCC)COP(=O)(O)O[C@H]1C(O)C(O)C(O)[C@@H](O)C1O (stereo partly drawn) [PI(34:1)]
297 Å² | CCCCCC/C=C\CCCCCCCCCCCC(=O)O[C@H](COC(=O)CCCCCCCCC/C=C\CCCCCC)COP(=O)([O-])OCC[N+](C)(C)C [PC(38:2)]
267.5 Å² | CCCCC/C=C\C/C=C\CCCCCCCC(=O)O[C@H](COC(=O)CCCCCCCCCCCCCCC)COP(=O)(O)O [PA(34:2)]
271 Å² | CCCCCCCC/C=C\CCCCCCCCCC(=O)O[C@H](COC(=O)CCCCCCCCCCCCC)COP(=O)(O)O [PA(34:1)]

Same assay, conditions: [M+NH4]+; instrument: DT; single field, calibrated with Agilent tune mix (Agilent)

collision cross section (N2) | SMILES
295.8 Å² | CCCCCCCCCC/C=C\CCCCCCCCCC(=O)O[C@H](COC(=O)CCCCCCCCCCC)COP(=O)(O)O[C@H]1C(O)C(O)C(O)[C@@H](O)C1O (stereo partly drawn) [PI(34:1)]
267.8 Å² | CCCCC/C=C\C/C=C\CCCCCCCC(=O)O[C@H](COC(=O)CCCCCCCCCCCCCCC)COP(=O)(O)O [PA(34:2)]
271.2 Å² | CCCCCCCC/C=C\CCCCCCCCCC(=O)O[C@H](COC(=O)CCCCCCCCCCCCC)COP(=O)(O)O [PA(34:1)]

Same assay, conditions: [M+Na]+; instrument: DT; single field, calibrated with Agilent tune mix (Agilent)

collision cross section (N2) | SMILES
292.4 Å² | CCCCCCCCCC/C=C\CCCCCCCCCC(=O)O[C@H](COC(=O)CCCCCCCCCCC)COP(=O)(O)O[C@H]1C(O)C(O)C(O)[C@@H](O)C1O (stereo partly drawn) [PI(34:1)]
227.5 Å² | CCCCCCCCCCCCCCCCCC(=O)O[C@H](CO)COP(=O)(O)OCCN [LPE(18:0)]
266.5 Å² | CCCCC/C=C\C/C=C\CCCCCCCC(=O)O[C@H](COC(=O)CCCCCCCCCCCCCCC)COP(=O)(O)O [PA(34:2)]
268.5 Å² | CCCCCCCC/C=C\CCCCCCCCCC(=O)O[C@H](COC(=O)CCCCCCCCCCCCC)COP(=O)(O)O [PA(34:1)]

Same assay, conditions: [M-H]-; instrument: DT; single field, calibrated with Agilent tune mix (Agilent)

collision cross section (N2) | SMILES
283.7 Å² | CCCCCCCCCC/C=C\CCCCCCCCCC(=O)O[C@H](COC(=O)CCCCCCCCCCC)COP(=O)(O)O[C@H]1C(O)C(O)C(O)[C@@H](O)C1O (stereo partly drawn) [PI(34:1)]
214.1 Å² | CCCCCCCCCCCCCCCCCC(=O)O[C@H](CO)COP(=O)(O)OCCN [LPE(18:0)]
266.2 Å² | CCCC/C=C\CCCCCCCC(=O)OC[C@H](COP(=O)(O)OC[C@@H](O)CO)OC(=O)CCCCCCCCC/C=C\C/C=C\CCCCC [PG(34:3)]
255.6 Å² | CCCCCCCC/C=C\CCCCCCCCCC(=O)O[C@H](COC(=O)CCCCCCCCCCCCC)COP(=O)(O)O [PA(34:1)]

Conditions: [M+H-H2O]+; instrument: TW; calibrated with phosphatidylcholines (ESI+) and phosphatidylethanolamines (ESI-)

collision cross section (N2) | SMILES
300.5 Å² | CCCCC/C=C\C/C=C\C/C=C\C/C=C\CCCC(=O)O[C@H](COC(=O)CCCCCCCCCCCCCCCCC)COP(=O)(O)O[C@H]1C(O)C(O)C(O)[C@@H](OP(=O)(O)O)C1O (stereo partly drawn) [PIP(38:4)]
292.7 Å² | CCCCC/C=C\C/C=C\CCCCCCCC(=O)O[C@H](COC(=O)CCCCCCC/C=C\CCCCCCCC)COP(=O)(O)O[C@H]1C(O)C(O)C(O)[C@@H](OP(=O)(O)O)C1O (stereo partly drawn) [PIP(36:3)]
296.4 Å² | CCCCCCCC/C=C\CCCCCCCC(=O)OC[C@H](COP(=O)(O)O[C@H]1C(O)C(O)C(O)[C@@H](OP(=O)(O)O)C1O)OC(=O)CCCCCCCCCCCCCCCCC (stereo partly drawn) [PIP(36:1)]
263.5 Å² | CCCCC/C=C\C/C=C\CCCCCCCCCCCC(=O)O[C@@H](CO)COC(=O)CCCCCCCCCCCCC [DG(18:1/18:1)]

Same assay, conditions: [M+H]+; instrument: TW; calibrated with phosphatidylcholines (ESI+) and phosphatidylethanolamines (ESI-)

collision cross section (N2) | SMILES
220.8 Å² | CCCCCCCCCCCCCCCCCC(=O)O[C@H](CO)COP(=O)(O)OCCN [LPE(18:0)]
255.1 Å² | CCCCCCCCCCCCCCCC(=O)N[C@@H](CO)[C@H](O)CCCCCCCCCCCCCCC [Cer(d18:0/16:0)]
293.7 Å² | CCCCCC/C=C\CCCCCCCCCCCC(=O)O[C@H](COC(=O)CCCCCCCCC/C=C\CCCCCC)COP(=O)([O-])OCC[N+](C)(C)C [PC(38:2)]
284.4 Å² | CCCCCCCCCCCCC=CC[C@@H](O)[C@H](CO)NC(=O)CCCCCCCCCCCCCCCCCCCCCCCCC [Cer(d18:1/26:0)]
279.6 Å² | CCCCCCCCCCCCCCCCCCCCCCCC(=O)N[C@@H](CO)[C@H](O)CCCCCCCCCCCCCCC [Cer(d18:0/24:0)]
